The values that follow come from ChEMBL document CHEMBL4340562, “Discovery of novel pyridazine derivatives as glucose transporter type 4 (GLUT4) translocation activators” (Bioorg Med Chem Lett, 2019).

Active and inactive are the calls of the source. The rule behind the calls is not given here.

Data set [1] deals with T1, Solute carrier family 2, facilitated glucose transporter member 4 (Rattus norvegicus) (UniProt P19357).
T1 sequence (whole entry): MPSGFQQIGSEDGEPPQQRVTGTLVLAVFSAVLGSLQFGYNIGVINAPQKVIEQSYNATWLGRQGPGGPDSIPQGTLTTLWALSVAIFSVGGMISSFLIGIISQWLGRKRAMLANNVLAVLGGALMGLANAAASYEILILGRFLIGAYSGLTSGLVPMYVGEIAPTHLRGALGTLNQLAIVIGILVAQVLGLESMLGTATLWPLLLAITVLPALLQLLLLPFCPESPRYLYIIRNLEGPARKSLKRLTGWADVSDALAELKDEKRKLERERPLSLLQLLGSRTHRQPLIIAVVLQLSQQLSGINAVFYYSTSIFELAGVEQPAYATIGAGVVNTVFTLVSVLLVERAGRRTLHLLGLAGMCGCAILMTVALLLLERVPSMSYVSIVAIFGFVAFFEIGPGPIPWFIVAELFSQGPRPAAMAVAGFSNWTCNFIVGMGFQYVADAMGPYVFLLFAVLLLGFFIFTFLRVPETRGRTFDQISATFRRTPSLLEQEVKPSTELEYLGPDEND
In words: Induction of GLUT4 translocation in rat L6-GLUT4myc differentiated myotube cells at 3 uM after 20 mins by chemiluminescent method relative to 30 uM 2-(4-(4-(2-methoxyphenyl)-6,7-dihydro-5H-cyclopenta[d]pyridazin-1-ylamino)phenyl)acetamide.

The target in data set [2] is T1, Solute carrier family 2, facilitated glucose transporter member 4 (Rattus norvegicus). In words: Induction of GLUT4 translocation in rat L6-GLUT4myc differentiated myotube cells at 30 uM after 20 mins by chemiluminescent method relative to 30 uM 2-(4-(4-phenylphthalazin-1-ylamino)phenyl)acetamide.
Data set [3] is described as follows: 1-octanol/PBS distribution co-efficient, log D of the compound at pH 7.4. In kind it is physicochemical.
The nature of data set [4]: Stability of the compound in mouse liver microsomes assessed as parent compound remaining after 30 mins relative to control. In kind it is ADME, Microsome. The note with it: read-out: Stability. A general note: Microsomes from liver hold many membrane-bound enzymes, among them those of drug oxidation.
In data set [5] the target is T1, Solute carrier family 2, facilitated glucose transporter member 4 (Rattus norvegicus). In words: Potency index, ratio of EC50 for 2-(4-(4-(2-methoxyphenyl)-6,7-dihydro-5H-cyclopenta[d]pyridazin-1-ylamino)phenyl)acetamide EC50 to EC50 for test compound for GLUT4 translocation activity in L6-GLUT4myc differentiated myotube cells.
For data set [6] the target is unchanged. In words: Induction of GLUT4 translocation in rat L6-GLUT4myc differentiated myotube cells at 3 uM after 20 mins by chemiluminescent method relative to 2-(4-(4-(2-methoxyphenyl)phthalazin-1-ylamino)phenyl)acetamide.
In data set [7] the test system is Mus musculus. In words: Antidiabetic activity in db/db mouse assessed as reduction in fasting plasma glucose level at 3 mg/kg, po measured up to 4 hrs. In kind it is functional.
Data set [8] has as its system Mus musculus. Put plainly: Antidiabetic activity in db/db mouse assessed as reduction in fasting plasma glucose level at 10 mg/kg, po measured up to 4 hrs. In kind it is functional.
Data set [9] deals with Mus musculus. Put plainly: Antidiabetic activity in db/db mouse assessed as reduction in fasting plasma glucose level at 30 mg/kg, po measured up to 4 hrs. In kind it is functional.
Data set [10] relates to Mus musculus. Put plainly: Antidiabetic activity in db/db mouse assessed as reduction in fasting plasma glucose AUC at 3 mg/kg, po measured up to 4 hrs. In kind it is functional, organism-based. Details: dose 3 mg/kg, time < 4 hr.
In data set [11] the test system is Mus musculus. In words: Antidiabetic activity in db/db mouse assessed as reduction in fasting plasma glucose AUC at 10 mg/kg, po measured up to 4 hrs. In kind it is functional, organism-based. More on the design: dose 10 mg/kg, time < 4 hr.
In data set [12] the test system is Mus musculus. Put plainly: Antidiabetic activity in db/db mouse assessed as reduction in fasting plasma glucose AUC at 30 mg/kg, po measured up to 4 hrs. In kind it is functional, organism-based. Details: dose 30 mg/kg, time < 4 hr.
Data set [13] is described as follows: Cmax in db/db mouse plasma at 3 mg/kg, po measured up to 4 hrs. In kind it is ADME, organism-based. Details: dose 3 mg/kg, route oral.
Data set [14] in a line: Cmax in db/db mouse plasma at 10 mg/kg, po measured up to 4 hrs. In kind it is ADME, organism-based. More on the design: dose 10 mg/kg, route oral.
Data set [15] can be described thus: Cmax in db/db mouse plasma at 30 mg/kg, po measured up to 4 hrs. In kind it is ADME, organism-based. More on the design: dose 30 mg/kg, route oral.
Data set [16] is described as follows: AUC (0 to 4 hrs) in db/db mouse plasma at 3 mg/kg, po measured up to 4 hrs. More on the design: dose 3 mg/kg, time < 4 hr, route oral. In kind it is ADME, organism-based.
The nature of data set [17]: AUC (0 to 4 hrs) in db/db mouse plasma at 10 mg/kg, po measured up to 4 hrs. In kind it is ADME, organism-based. More on the design: dose 10 mg/kg, time < 4 hr, route oral.
The nature of data set [18]: AUC (0 to 4 hrs) in db/db mouse plasma at 30 mg/kg, po measured up to 4 hrs. In kind it is ADME, organism-based. Details: time < 4 hr, dose 30 mg/kg, route oral.
The subject of data set [19] is Mus musculus. Put plainly: Antidiabetic activity in db/db mouse assessed as reduction in fasting plasma glucose level at 3 to 30 mg/kg, po measured up to 4 hrs. In kind it is functional, organism-based.
The nature of data set [20]: Cmax in db/db mouse plasma at 3 to 30 mg/kg, po measured up to 4 hrs. In kind it is ADME, organism-based. The note with it: in vivo.
Data set [21] in a line: AUC (0 to 4 hrs) in db/db mouse plasma at 3 to 30 mg/kg, po measured up to 4 hrs. In kind it is ADME, organism-based. The following applies: in vivo.

Regarding `COc1ccccc1-c1nnc(Nc2ccc(CC(N)=O)c(F)c2)c2c1CCC2`, in data set [1], the fold change (FC) came out at 0.56.
On to `Cc1cccc(-c2nnc(Nc3ccc(CC(N)=O)cc3)c3ccccc23)c1`, for which the fold change (FC) in data set [2] stood at 1.3.
Turning to `COc1ccccc1-c1nnc(Nc2ccc(CC(N)=O)cc2F)c2c1CCC2`, the fold change (FC) in data set [1] was found to be 0.85.
With `COc1ccccc1-c1nnc(Nc2ccc(CC(N)=O)cc2)c2c1CCCC2`, the fold change (FC) in data set [2] worked out at 0.9.
`COc1ccccc1-c1nnc(Nc2ccc(C3(C(N)=O)CC3)cc2)c2c1CCC2`: the fold change (FC) in data set [1] is 0.37.
As for `CCc1ccccc1-c1nnc(Nc2ccc(CC(N)=O)cc2)c2ccccc12`, the fold change (FC) in data set [2] came to 1.7.
Regarding `COc1ccccc1-c1nnc(Nc2ccc(C(C)(C)C(N)=O)cc2)c2c1CCC2`, the fold change (FC) in [1] came out at 0.3.
Consider `COc1cccc(-c2nnc(Nc3ccc(CC(N)=O)cc3)c3ccccc23)c1`, for which, in data set [2], the fold change (FC) is 1.
As for `CCc1c(Nc2ccc(CC(N)=O)cc2)nnc(-c2ccccc2OC)c1CC`, the “fold change (FC)” value in data set [2] was “inactive”.
The term logD denotes the decadic logarithm of the distribution of all forms, ionised or not, between an organic phase and buffer at a given pH. Read a high logD as higher lipophilicity. In [3], `CC(C)(C)NC(=O)NCCOCCOc1ccccc1-c1nnc(Nc2ccc(CC(N)=O)cc2F)c2ccsc12` returned a logD of 2.9. Moreover, the remaining at 0.5 h in data set [4] stood at 2%.
In data set [3], `COc1ccccc1-c1nnc(Nc2ccc(CC(N)=O)cc2F)c2ccsc12` came in with a pH-dependent lipophilicity (logD) of 2.6. Also, in [4], the remaining at 0.5 h is 92%. Moreover, the Ratio EC50 in [5] is 7.
Turning to `NC(=O)Cc1ccc(Nc2nnc(-c3ccccc3OCc3cscn3)c3sccc23)c(F)c1`, the logD in data set [3] is 2.6. Besides, the remaining at 0.5 h in data set [4] came to 79%.
For the compound `COc1ccccc1-c1nnc(Nc2ccc(CC(N)=O)cc2)c2c1CCC2`, the results for the fold change (FC) in [2] and in data set [6] were 4.7 and 2, respectively. Further, the logD in data set [3] stood at 2.3. In addition, the remaining at 0.5 h in [4] was determined as 90%.
For `COc1ccccc1-c1nnc(Nc2ccc(CC(N)=O)cc2O)c2c1CCC2`, the fold change (FC) in data set [1] came out at 0.09.
Same read-out and setting: under `CNC(=O)Cc1ccc(Nc2nnc(-c3ccccc3OC)c3c2CCC3)cc1` stands 0.08; under `COc1ccccc1-c1nnc(Nc2ccc(CCC(N)=O)cc2)c2c1CCC2`, “inactive”.
With `COCCOCCOc1ccccc1-c1nnc(Nc2ccc(CC(N)=O)cc2F)c2ccsc12`, the logD in [3] amounted to 1.8. The remaining at 0.5 h in data set [4] was found to be 82%.
In the case of `Cc1ccccc1-c1nnc(Nc2ccc(CC(N)=O)cc2)c2ccccc12`, the fold change (FC) in data set [2] was determined as 1.6.
As for `COc1ccccc1-c1nnc(Nc2ccc(CS(N)(=O)=O)cc2)c2c1CCC2`, the fold change (FC) in data set [1] amounted to 0.09.
Take `NC(=O)Cc1ccc(Nc2nnc(-c3ccccc3OCC3COCCO3)c3sccc23)c(F)c1` (stereo unspecified): the logD in data set [3] was found to be 1.8. In data set [4], the remaining at 0.5 h is over 100%.
Take `COc1ccccc1-c1nnc(Nc2ccc(CC(N)=O)cc2)c2ccccc12`: in [2], the fold change (FC) was 2.7.
Turning to `COc1ccccc1-c1nnc(Nc2ccc(CC(N)=O)c(C)c2)c2c1CCC2`, in data set [1], the fold change (FC) was 0.36.
Turning to `COc1ccc(-c2nnc(Nc3ccc(CC(N)=O)cc3)c3ccccc23)cc1`, the “fold change (FC)” value in data set [2] is “inactive”.
Regarding `COc1ccccc1-c1nnc(Nc2ccc(C(N)=O)cc2)c2c1CCC2`, the fold change (FC) in data set [1] amounted to 0.1.
Regarding `COc1cc(CC(N)=O)ccc1Nc1nnc(-c2ccccc2OC)c2c1CCC2`, in [1], the fold change (FC) was found to be 0.13.
`COc1ccccc1-c1nnc(Nc2ccc(CC(N)=O)cc2)c2sccc12`: the fold change (FC) in data set [1] was 0.67.
Still for that read-out and setting: as for `COc1ccccc1-c1nnc(Nc2ccc(CC(N)=O)cc2)c2occc12`, the figure is 0.46; as for `COc1ccccc1-c1nnc(Nc2ccc(CC(=O)N(C)C)cc2)c2c1CCC2`, 0.09.
For `COc1ccccc1-c1nnc(Nc2ccc(CC(N)=O)cc2)c2ccsc12`, the fold change (FC) in data set [1] amounted to 0.97.
With `COc1ccccc1-c1nnc(Nc2ccc(CC(N)=O)cc2)c2ccoc12`, the fold change (FC) in data set [1] is 0.33.
For `COc1ccccc1-c1nnc(Nc2ccc(CC(N)=O)cc2)c(C)c1C`, the fold change (FC) in [2] came out at 3.7.
With `COc1ccccc1-c1nnc(Nc2ccc(CC(N)=O)cc2Cl)c2c1CCC2`, in data set [1], the fold change (FC) stood at 0.45.
For the compound `COc1ccccc1-c1nnc(Nc2ccc(CC(N)=O)cc2C(F)(F)F)c2c1CCC2`, in data set [1], the fold change (FC) came to 0.12.
`NC(=O)Cc1ccc(Nc2nnc(-c3ccccc3OCc3ccccn3)c3sccc23)c(F)c1` had a logD in [3] of 2.9. For the same compound, the remaining at 0.5 h in data set [4] was found to be 19%.
Take `COc1ccccc1-c1nnc(Nc2ccc(CC(N)=O)cc2C)c2c1CCC2`: the fold change (FC) in data set [1] was 0.52.
What is called Cmax is the peak of the concentration-time curve. As usually defined, the AUC(0-t) is exposure summed from dosing to a finite time, without extrapolation to infinity. Read a low AUC(0-t) as less exposure. In turn, `COCCOc1ccccc1-c1nnc(Nc2ccc(CC(N)=O)cc2F)c2ccsc12` came in with a logD in data set [3] of 2.1. In addition, in data set [4], the remaining at 0.5 h worked out at 66%. The Emax in the data set on Mus musculus [7] came out at 220 mg/dL; in the data set with Mus musculus [8], 393 mg/dL; with Mus musculus [9], 435 mg/dL. The AUC in the data set on Mus musculus [10] is 644 mg/dl.hr; in the data set with Mus musculus [11] it was 1160 mg/dl.hr; in the data set on Mus musculus [12], 1210 mg/dl.hr; in data set [21], “Dose-dependent effect”. Moreover, the Cmax in [13] is 3.38 µM; in data set [14] it was 4 µM; in data set [15], 4.38 µM; in [20], “Dose-dependent effect”. The AUC(0-t) at 4 h in data set [16] was 9.01 µM·h; in [17] it was 10.6 µM·h; in data set [18] it was 12.6 µM·h. For the same compound, the Activity result in the data set with Mus musculus [19] is “Dose-dependent effect”.
`CC(C)(C)OC(=O)NCCOCCOc1ccccc1-c1nnc(Nc2ccc(CC(N)=O)cc2F)c2ccsc12`: the logD in data set [3] was found to be 3.2. Further, the remaining at 0.5 h in [4] was 15%.
For `COc1ccccc1-c1nnc(Nc2ccc(CC(N)=O)cc2)c2oc(C)cc12`, in data set [1], the “fold change (FC)” value was “inactive”.
As to `COc1ccccc1-c1nnc(Nc2cccc(CC(N)=O)c2)c2c1CCC2`, the fold change (FC) in [1] came to 0.04.
